What was measured:
[1] = Parallel Artificial Membrane Permeability Assay (PAMPA), GI; format: in vitro ADME; details: GI (intestinal) PAMPA, value in brackets
Protocol: Parallel Artificial Membrane Permeability Assay (PAMPA). Donor solution (0.5 mM) was prepared by diluting 1 mM dimethylsulfoxide (DMSO) compound stock solution using phosphate buffer (pH 7.4, 0.025 M). Filters were coated with 5 μL of a 1% (w/v) dodecane solution of phosphatidylcholine prepared from CHCl3 solution 10% w/v, for intestinal permeability. Donor solution (150 μL) was added to each well of the filter plate. To each well of the acceptor plate were added 300 μL of solution (50% DMSO in phosphate buffer). All compounds were tested in three different plates on different days. The sandwich was incubated for 5 h at room temperature under gentle shaking. After the incubation time, the plates were separated, and samples were taken from both receiver and donor sides and analyzed using LC with UV detection at 280 nm.
LC analysis were performed with a Varian Prostar HPLC system (Varian Analytical Instruments, USA) equipped with a binary pump with a manual injection valve and model Prostar 325 UV-VIS Detector. Chromatographic separations were conducted using a Polaris C18-A column (150-4.6 mm, 5 μm particle size) at a flow rate of 0.8 mL min^−1 with a mobile phase composed of 60% ACN/40% H2O.
Permeability (Papp) for PAMPA was calculated according to the following equation, obtained from Wohnsland and Faller and Sugano et al. equation with some modification in order to obtain permeability values in cm s^−1,
where VA is the volume in the acceptor well, VD is the volume in the donor well (cm^3), A is the “effective area” of the membrane (cm^2), t is the incubation time (s) and r the ratio between drug concentration in the acceptor and equilibrium concentration of the drug in the total volume (VD+VA). Drug concentration is estimated by using the peak area integration.
Membrane retentions (%) were calculated according to the following equation: […]
where r is the ratio between drug concentration in the acceptor and equilibrium concentration, D, A, and Eq represented drug concentration in the donor, acceptor and equilibrium solution, respectively.

[2] = system: Human Prostate cell line derived from brain metastasis (DU-145); assay: Cytotoxicity test / growth inhibition, DU-145; format: cell-based; details: DU-145, 48 hours, cell counting
Protocol: (§1) Cells were purchased from American Type Culture Collection (ATCC, Manassas, Va., USA). The LNCaP (ATCC® CRL-1740™), A549 (ATCC® CCL-185™), MDA-MB-231 (ATCC® CRM-HTB-26™), 22Rv1 (ATCC® CRL-2505™), HCT-116 (ATCC® CCL-247™) and PC3 (ATCC® CRL-1435™) cells were maintained in Roswell Park Memorial Institute 1640 medium (RPMI; Euroclone, ECB9006L) supplemented with 10% fetal bovine serum (Euroclone; ECS0180L), 2 mM L-glutamine, 100 units/mL penicillin and […] streptomycin at 37° C. in an atmosphere of 5% CO2/air. DU145 (ATCC® HTB-81™), and DAOY (ATCC® HTB-186™) cells were maintained in Eagle's minimal essential medium (EMEM; Euro-clone, ECM0445L) supplemented with 10% fetal bovine serum (Euroclone; ECS0180L), 2 mM L-glutamine, 100 units/ml penicillin and […] streptomycin at 37° C. in an atmosphere of 5% CO2/air. SH-SY5Y (ATCC® CRL-2266™), DBRTG (ATCC® CRL-2020™), HeLa (ATCC® CCL-2™), HN6 cells (kindly provided by Dr Silvio Gutkind, UCSD Medical Center, Moores Cancer Center USA, Chen J. J et al, Oncotarget 2013, 4, 206-217)), U2OS (ATCC® HTB-96™), RD18 cells (kindly provided by Dr P. Boccuni Memorial Sloan-Kettering Cancer Center, New York, USA Vella S. et al. Clin Epigenetics. 2015 6; 7-82), cells were maintained in Dulbecco's modified Eagle's medium (DMEM; Euroclone, ECB7501L) supplemented with 10% fetal bovine serum (Euroclone; ECS0180L), 2 mM L-glutamine, 100 units/ml penicillin and 100 mg/mL streptomycin at 37° C. in an atmosphere of 5% CO2/air.
(§2) Cell lines were seeded at appropriate densities in 2 mL growth medium in 6-wells culture plates 24 hours before the treatment with the inhibitor compounds. After 24 h the culture medium was removed and fresh medium containing increasing concentrations of chemical compounds was added to cells. The fixed final concentrations were: 0.1 μM, 1 μM, 10 μM, 100 μM. DMSO was the vehicle used for dilution of the compounds and its final concentration on cells was less than 0.2%. Medium-only containing wells were included as controls. Cells were incubated 48 hours with drugs and, then, cell viability was evaluated.
(§3) Cells were detached from each well of the 6-wells plates with 300 μL of Trypsin and suspended in culture medium to a final volume of 1 mL. Cell viability was then assessed through cell counting. Cells were diluted in 1:50 ratio of an isotonic buffered diluent, Isoton (Backman Coulter), following the manufacturer's instructions, and counted using an automated cell counter (Z2 series Coulter Counter, Beckman Coulter). Each cell count was performed in three replicates. The values corresponding to the relative survival of cells in presence of each chemical compound at single concentrations were normalized to the untreated controls. […]

[3] = system: Human Prostate cancer cell line (PC3); assay: Cytotoxicity test / growth inhibition, PC3; format: cell-based; details: PC3, 48 hours, cell counting
Protocol: as §1, with “2015 6; 7-82), cells were maintained in Dulbecco's modified Eagle's medium (DMEM; Euroclone, ECB7501L) supplemented with 10% fetal bovine serum (Euroclone; ECS0180L), 2 mM L-glutamine, 100 units/ml penicillin and 100 mg/mL streptomycin at 37° C. in an atmosphere of 5% CO2/air.” left out
(§4) Cell lines were seeded at appropriate densities in 2 mL growth medium in 6-wells culture plates 24 hours before the treatment with the inhibitor compounds. […] Cells were incubated 48 hours with drugs and, then, cell viability was evaluated.
(§5) Cells were detached from each well of the 6-wells plates with 300 μL of Trypsin and suspended in culture medium to a final volume of 1 mL. Cell viability was then assessed through cell counting. Cells were diluted in 1:50 ratio of an isotonic buffered diluent, Isoton (Backman Coulter), following the manufacturer's instructions, and counted using an automated cell counter (Z2 series Coulter Counter, Beckman Coulter). […]

[4] = system: Human breast adenocarcinoma cell line (MDA-MB-231); assay: Cytotoxicity test / growth inhibition, MDA-MB-231; format: cell-based; details: MDA-MB-231, 48 hours, cell counting
Protocol: as §1, §2
(§6) Cells were detached from each well of the 6-wells plates with 300 μL of Trypsin and suspended in culture medium to a final volume of 1 mL. Cell viability was then assessed through cell counting. Cells were diluted in 1:50 ratio of an isotonic buffered diluent, Isoton (Backman Coulter), following the manufacturer's instructions, and counted using an automated cell counter (Z2 series Coulter Counter, Beckman Coulter). Each cell count was performed in three replicates. The values corresponding to the relative survival of cells in presence of each chemical compound at single concentrations were normalized to the untreated controls. Then, the half maximal inhibitory concentration (IC50) value, which represent the drug concentration that is required to induce a 50% growth inhibition in vitro, was calculated with GraphPad Prism 6.0 software using the best fitting sigmoid curve.

[5] = system: Human cervical carcinoma cell line (HeLa); assay: Cytotoxicity test / growth inhibition, HeLa; format: cell-based; details: 48 hours, cell counting
Protocol: as §1, with “2015 6; 7-82), cells were maintained in Dulbecco's modified Eagle's medium (DMEM; Euroclone, ECB7501L) supplemented with 10% fetal bovine serum (Euroclone; ECS0180L), 2 mM L-glutamine, 100 units/ml penicillin and 100 mg/mL streptomycin at 37° C. in an atmosphere of 5% CO2/air.” left out
as §4, §5

[6] = system: Human adenocarcinomic alveolar basal epithelial cell line (A549); assay: Cytotoxicity test / growth inhibition, A549; format: cell-based; details: A549, 48 hours, cell counting
Protocol: as §1, §2, §6

[7] = system: Human colorectal carcinoma cell line (HCT116); assay: Cytotoxicity test / growth inhibition, HCT116; format: cell-based; details: HCT-116, HCT116, 48 hours, cell counting
Protocol: as §1, with “2015 6; 7-82), cells were maintained in Dulbecco's modified Eagle's medium (DMEM; Euroclone, ECB7501L) supplemented with 10% fetal bovine serum (Euroclone; ECS0180L), 2 mM L-glutamine, 100 units/ml penicillin and 100 mg/mL streptomycin at 37° C. in an atmosphere of 5% CO2/air.” left out
as §4, §5

[8] = system: Human osteosarcoma cell line (U2OS); assay: Cytotoxicity test / growth inhibition, U2OS; format: cell-based; details: 48 hours, cell counting
Protocol: as §1, §2, §6

[9] = system: Human head and neck squamous carcinoma cell line (HN6); assay: Cytotoxicity test / growth inhibition, HN6; format: cell-based; details: HN6, 48 hours, cell counting
Protocol: as §1, §2, §6

[10] = system: Human muscle rhabdomyosarcoma cell line (RD18); assay: Cytotoxicity test / growth inhibition, RD18; format: cell-based; details: RD18, 48 hours, cell counting
Protocol: (§7) Cells were purchased from American Type Culture Collection (ATCC, Manassas, Va., USA). The LNCaP (ATCC® CRL-1740™), A549 (ATCC® CCL-185™), MDA-MB-231 (ATCC® CRM-HTB-26™), 22Rv1 (ATCC® CRL-2505™), HCT-116 (ATCC® CCL-247™) and PC3 (ATCC® CRL-1435™) cells were maintained in Roswell Park Memorial Institute 1640 medium (RPMI; Euroclone, ECB9006L) supplemented with 10% fetal bovine serum (Euroclone; ECS0180L), 2 mM L-glutamine, 100 units/mL penicillin and […] streptomycin at 37° C. in an atmosphere of 5% CO2/air. […]
as §4, §5

[11] = system: Human brain glioblastoma cell line (DBTRG); assay: Cytotoxicity test / growth inhibition, DBTRG; format: cell-based; details: 48 hours, cell counting
Protocol: as §7, §4, §5

[12] = system: Human medulloblastoma cell line (DAOY); assay: Cytotoxicity test / growth inhibition, DAOY; format: cell-based; details: 48 hours, cell counting
Protocol: as §7, §4, §5

[13] = Microsomal Stability Assay (HLM); format: in vitro ADME; details: human liver microsomes, 37° C., 60 min, NADPH-generating system; percentage of not metabolized compound
Text: For the quantification was used an LC-MS system consisted of a Varian apparatus (Varian Inc) including a vacuum solvent degassing unit, two pumps (212-LC), a Triple Quadrupole MSD (Mod. 320-LC) mass spectrometer with ES interface and Varian MS Workstation System Control Vers. 6.9 software. Chromatographic separation was obtained using a Pursuit C18 column (50×2.0 mm) (Varian) with 3 μm particle size and gradient elution: eluent A being ACN and eluent B consisting of water. […] The flow rate was 0.2 mL min^−1 and injection volume was 5 μL. The instrument operated in positive mode and parameters were: detector 1850 V, drying gas pressure 25.0 psi, desolvation temperature 300.0° C., nebulizing gas 40.0 psi, needle 5000 V and shield 600 V. Nitrogen was used as nebulizer gas and drying gas. Collision induced dissociation was performed using Argon as the collision gas at a pressure of 1.8 mTorr in the collision cell. Microsomal Stability Assay. […] The reaction was stopped by cooling on ice and adding 1.0 mL of acetonitrile. The reaction mixtures were then centrifuged, and the parent drug and metabolites were subsequently determined by LC-UV-MS. Chromatographic analysis was performed with an Agilent 1100 LC/MSD VL system (G1946C) (Agilent Technologies, Palo Alto, Calif.) constituted by a vacuum solvent degassing unit, a binary high-pressure gradient pump, an 1100 series UV detector, and an 1100 MSD model VL benchtop mass spectrometer.
Chromatographic separation was obtained using a Varian Polaris C18-A column (150-4.6 mm, 5 μm particle size) and gradient elution: eluent A being ACN and eluent B consisting of water. […] The flow rate was 0.8 mL min^−1 and injection volume was 20 μL.
The Agilent 1100 series mass spectra detection (MSD) single-quadrupole instrument was equipped with the orthogonal spray API-ES (Agilent Technologies, Palo Alto, Calif.). Nitrogen was used as nebulizing and drying gas. The pressure of the nebulizing gas, the flow of the drying gas, the capillary voltage, the fragmentor voltage, and the vaporization temperature were set at 40 psi, 9 L/min, 3000 V, 70 V, and 350° C., respectively. UV detection was monitored at 280 nm. The LC-ESI-MS determination was performed by operating the MSD in the positive ion mode. Spectra were acquired over the scan range m/z 100-1500 using a step size of 0.1 u. The percentage of not metabolized compound was calculated by comparison with reference solutions.

[14] = system: Human Prostate Adenocarcinoma cell line (LNCaP); assay: Cytotoxicity test / growth inhibition, LNCaP; format: cell-based; details: 48 hours, cell counting
Protocol: as §7, §4, §5

[15] = system: Human Prostate carcinoma epithelial cell line (22Rv1); assay: Cytotoxicity test / growth inhibition, 22Rv1; format: cell-based; details: 22Rv1, 48 hours, cell counting
Protocol: as §7, §4, §5

[16] = system: Human Neuroblastoma cell line (SH-SY5Y); assay: Cytotoxicity test / growth inhibition, SH-SY5Y; format: cell-based; details: 48 hours, cell counting
Protocol: as §7, §4, §5

[17] = system: Human Glioblastoma cell line (U87); assay: Cytotoxicity test / growth inhibition, U87; format: cell-based; details: U87, 48 hours, cell counting
Protocol: as §2, §3

| Compound | PAMPA GI (RM %) membrane retention [1] | IC50 [2] | IC50 [3] | IC50 [4] | IC50 [5] | IC50 [6] | IC50 [7] | IC50 [8] | IC50 [9] | IC50 [10] | IC50 [11] | IC50 [12] | Sability % [13] | IC50 [14] | IC50 [15] | IC50 [16] | IC50 [17] |
| --- | --- | --- | --- | --- | --- | --- | --- | --- | --- | --- | --- | --- | --- | --- | --- | --- | --- |
| CCCCc1cn(-c2ccc(NC(=O)Nc3ccccc3C(F)(F)F)cc2)nn1 [Compound 22a, 1-(4-(4-butyl-1H-1,2,3-triazol-1-yl)phenyl)-3-(2-(trifluoromethyl)phenyl)urea] | 23.9% | 0.1 µM | 25.6 µM | 1.4 µM | 6.29 µM | 1.4 µM | 3.9 µM | 4.2 µM | 0.8 µM | 3.2 µM | 5.8 µM | 3.3 µM |  |  |  |  |  |
| CCCCc1cn(-c2cccc(S(=O)(=O)Nc3ccccc3C(F)(F)F)c2)nn1 [Compound 64d, 3-(4-butyl-1H-1,2,3-triazol-1-yl)-N-(2-(trifluoromethyl)phenyl)benzenesulfonamide] |  | 3 µM |  | 15.7 µM | 51.7 µM | 21.3 µM |  |  |  |  |  |  | 99% | 16.7 µM | 14 µM | 18.8 µM | 87 µM |

— patent publication US11000512B2, “Use of DDX3 inhibitors as antiproliferative agents” (AZIENDA OSPEDALIERA UNIVERSITARIA SENESE, priority 2016, dated 2021)
